The values below come from ChEMBL document CHEMBL1130832, “5-Alkyl-2-[(methylthiomethyl)thio]-6-(benzyl)-pyrimidin-4-(1H)-ones as potent non-nucleoside reverse transcriptase inhibitors of S-DABO series” (Bioorg Med Chem Lett, 1998).

The term IC50 denotes the concentration that gives 50% inhibition.

Test [1] has as its target Human immunodeficiency virus type 1 reverse transcriptase (Human immunodeficiency virus 1, UniProt Q72547). Put plainly: Compound was evaluated for enzymatic inhibitory activity against recombinant HIV reverse transcriptase.
A short description of test [2]: Compound was evaluated for inhibition of p24 production in HIV infected peripheral blood mononuclear cells. It counts as functional. To be noted: Homo sapiens.
Test [3] in a line: Compound was evaluated for cytotoxic activity against peripheral blood mononuclear cells using microculture tetrazolium assay. Format: functional. The note with it: Homo sapiens.

As for `CSCSc1nc(O)c(C(C)C)c(Cc2ccccc2)n1`, the 50% inhibitory concentration (IC50) in test [1] was 6.1 µM; in test [2], < 0.001 µM; in test [3], > 100 µM.

With `CSCSc1nc(O)c(C)c(Cc2ccccc2)n1`, the IC50 is 18.8 µM in test [1], 4.5 µM in test [2] and > 100 µM in test [3].

Consider `CCOCn1c(Cc2ccccc2)c(C(C)C)c(=O)[nH]c1=O` [EMIVIRINE], for which the IC50 in test [3] is > 100 µM.

With `CCc1c(O)nc(SCSC)nc1Cc1ccccc1`, the IC50 in test [1] was 9.7 µM; in test [2], 0.8 µM; in test [3] it was > 100 µM.

`CSCSc1nc(O)c(C(C)C)c(Cc2cc(C)cc(C)c2)n1`: the IC50 in test [1] was 4.8 µM; in test [2], 0.01 µM; in test [3], > 100 µM.

On to `Cc1cn([C@H]2C[C@H](N=[N+]=[N-])[C@@H](CO)O2)c(=O)[nH]c1=O` [ZIDOVUDINE], for which the IC50 in test [1] was > 100 µM; in test [2] it was 0.004 µM; in test [3], 100 µM.
